Values of other authors in publication PMC7893915, “Assessing cross-resistance within the pyrethroids in terms of their interactions with key cytochrome P450 enzymes and resistance in vector populations” (Parasites & Vectors, 2021).
pIC50: −log10 of the molar value.

Key:
CYP6P9b = conditions: two earlier studies; ref [28]; cited from earlier work
CYP6P9a = conditions: two earlier studies; ref [28]; cited from earlier work
CYP6M7 = conditions: two earlier studies; ref [28]; cited from earlier work
CYP6Z2 = target: T1, CYP6Z2 (Anopheles gambiae, UniProt Q7PNB5); conditions: read-out: IC50 CYP6Z2; inhibition of diethoxyfluorescein metabolism; footnote a; ref Yunta et al. 2016[8]; cited from earlier work
T1 sequence (Q7PNB5 1-492): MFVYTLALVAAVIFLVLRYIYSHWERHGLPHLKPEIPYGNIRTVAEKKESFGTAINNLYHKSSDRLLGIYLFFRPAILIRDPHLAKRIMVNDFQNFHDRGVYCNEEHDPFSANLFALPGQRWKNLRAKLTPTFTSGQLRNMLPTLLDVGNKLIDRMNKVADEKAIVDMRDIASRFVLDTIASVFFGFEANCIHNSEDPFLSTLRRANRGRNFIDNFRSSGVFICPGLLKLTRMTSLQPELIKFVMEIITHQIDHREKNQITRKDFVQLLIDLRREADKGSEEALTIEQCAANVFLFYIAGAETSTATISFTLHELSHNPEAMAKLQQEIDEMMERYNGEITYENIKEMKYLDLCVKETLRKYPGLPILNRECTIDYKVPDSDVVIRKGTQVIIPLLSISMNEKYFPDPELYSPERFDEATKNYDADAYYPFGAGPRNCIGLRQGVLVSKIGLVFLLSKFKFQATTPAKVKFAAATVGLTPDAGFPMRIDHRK
T1 sequence (Q86QH5 1-679 partner): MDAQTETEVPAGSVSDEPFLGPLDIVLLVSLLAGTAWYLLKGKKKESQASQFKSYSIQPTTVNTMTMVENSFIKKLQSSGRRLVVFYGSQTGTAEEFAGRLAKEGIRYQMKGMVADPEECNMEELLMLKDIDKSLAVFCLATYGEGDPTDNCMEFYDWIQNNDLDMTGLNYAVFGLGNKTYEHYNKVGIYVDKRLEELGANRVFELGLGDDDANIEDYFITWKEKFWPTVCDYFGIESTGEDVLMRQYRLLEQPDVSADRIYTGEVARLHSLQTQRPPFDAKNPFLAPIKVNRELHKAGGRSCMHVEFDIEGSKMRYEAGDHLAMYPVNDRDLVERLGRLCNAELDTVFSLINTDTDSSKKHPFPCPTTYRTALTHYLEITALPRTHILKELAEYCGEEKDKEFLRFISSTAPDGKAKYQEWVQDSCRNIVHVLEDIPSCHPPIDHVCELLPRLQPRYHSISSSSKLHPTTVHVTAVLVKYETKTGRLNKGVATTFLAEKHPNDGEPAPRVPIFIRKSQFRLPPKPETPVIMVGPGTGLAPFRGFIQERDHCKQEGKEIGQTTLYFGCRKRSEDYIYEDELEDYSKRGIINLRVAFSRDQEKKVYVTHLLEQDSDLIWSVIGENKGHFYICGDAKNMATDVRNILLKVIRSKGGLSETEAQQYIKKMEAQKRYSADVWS

Row | Compound | depletion (metabolised) by CYP6P9b (CYP6P9b) | depletion (metabolised) by CYP6P9a (CYP6P9a) | depletion (metabolised) by CYP6M7 (CYP6M7) | pIC50 (CYP6Z2)
1 | Cc1c(COC(=O)[C@@H]2[C@H](/C=C(\Cl)C(F)(F)F)C2(C)C)cccc1-c1ccccc1 (racemic) [Bifenthrin, bifenthrin] | 71% | 68% | 62% | 
2 | CC1(C)[C@H](C(=O)O[C@H](C#N)c2cccc(Oc3ccccc3)c2)[C@@H]1C=C(Br)Br [Deltamethrin, deltamethrin] |  |  |  | 4.86
3 | CC1(C)C(C=C(Cl)Cl)C1C(=O)OCc1cccc(Oc2ccccc2)c1 (centres unmarked) [Permethrin, permethrin] |  |  |  | 4.86
